# Measurements: patent US9359616B2, “Ribosomal polynucleotides and related expression systems” (The Scripps Research Institute, priority 2012, dated 2016)
# Experiments:
# wild type 40S subunits = assay: 35S-Met/Cys pulse labeling of transfected N2a cells cultured with increasing concentrations of pactamycin (wild type ribosomes); assay type: cell-based, mouse; conditions: 100 ng/ml pactamycin, could be further blocked at higher concentrations, SDS-PAGE of 35S-labeled lysates (FIG. 4d)
# Text: There were no reports of functionally tested examples of nucleotide changes conferring antibiotic resistance in higher eukaryotes. Pactamycin affects translation by binding to rRNA in the E-site of the small subunit and disrupting the positioning of mRNA at this site. The result of pactamycin-binding is a block in […] and the accumulation of di-peptides resulting from aborted initiation events. Analyzed were the effects of mutations in mouse 18S rRNA at four residues, G963, A964, C1065 and C1066 in SEQ ID NO:23. These residues correspond, respectively, to positions 693, 694, 795 and 796 at the E-site of E. coli 16S rRNA which were identified from crystal structures. Unless otherwise noted, the numbering of these sites in mammalian 18S rRNA sequences is based on that in E. coli 16S rRNA. […] Pactamycin resistance was assessed by 35S-Met/Cys pulse labeling of transfected cells in the presence of 100 ng/ml antibiotic. […] Mutated ribosomes were also analyzed for their ability to translate a luciferase mRNA in cells transfected with a luciferase reporter plasmid (pGL4.13), and cultured in the presence of 100 ng/ml pactamycin (FIG. 4b).
# The levels of synthetic 18S rRNA for constructs with each mutation were monitored using the hybridization tag and found no substantial differences that could account for the difference in translation between G693A and the other mutations (FIG. 4c). […]
# [1] = system: mutated subunits (G693A 18S rRNA); assay: 35S-Met/Cys pulse labeling of transfected N2a cells cultured with increasing concentrations of pactamycin (G693A mutated ribosomes); assay type: cell-based, mouse; conditions: even at the highest concentration tested of 6,400 ng/ml pactamycin; N2a cells (FIG. 4d)
smiles,measurement,setting,value
CC(=O)c1cccc(N[C@H]2[C@H](N)[C@@](NC(=O)N(C)C)([C@H](C)O)[C@@](C)(O)[C@@]2(O)COC(=O)c2c(C)cccc2O)c1 [pactamycin],translation from wild type 40S subunits,wild type 40S subunits,substantially blocked
same,translation from the mutated subunits,[1],unaffected
